# Experimental data published in patent US11208412B2 (DAEGU-GYEONGBUK MEDICAL INNOVATION FOUNDATION, priority 2017, dated 2021).
# Key:
# Assay in all cases: Kinase selectivity, DiscoverX scanMAX Kinase assay panel (% control)
# Format in all cases: binding
# [1] = biological target: T1, kinases of the scanMAX Kinase assay panel (Homo sapiens, UniProt P00533, L858R/T790M); settings: EGFR(L858R, T790M); 1 uM
# T1 construct: purchased DiscoverX Co. (contract measurement) scanMAX Kinase assay panel
# Procedure, shortened: (§1)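 Each enzyme is treated with drug at 1 uM in DMSO, then signal is scaled between a positive control (0%) and DMSO (100%) to give % control. Kinases with % control under 35% are scored as inhibited.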
# [2] = biological target: T2, kinases of the scanMAX Kinase assay panel (Homo sapiens, UniProt P42684); settings: ABL2; 1 uM
# T2 construct: purchased DiscoverX Co. (contract measurement) scanMAX Kinase assay panel
# T2 sequence (P42684 whole entry): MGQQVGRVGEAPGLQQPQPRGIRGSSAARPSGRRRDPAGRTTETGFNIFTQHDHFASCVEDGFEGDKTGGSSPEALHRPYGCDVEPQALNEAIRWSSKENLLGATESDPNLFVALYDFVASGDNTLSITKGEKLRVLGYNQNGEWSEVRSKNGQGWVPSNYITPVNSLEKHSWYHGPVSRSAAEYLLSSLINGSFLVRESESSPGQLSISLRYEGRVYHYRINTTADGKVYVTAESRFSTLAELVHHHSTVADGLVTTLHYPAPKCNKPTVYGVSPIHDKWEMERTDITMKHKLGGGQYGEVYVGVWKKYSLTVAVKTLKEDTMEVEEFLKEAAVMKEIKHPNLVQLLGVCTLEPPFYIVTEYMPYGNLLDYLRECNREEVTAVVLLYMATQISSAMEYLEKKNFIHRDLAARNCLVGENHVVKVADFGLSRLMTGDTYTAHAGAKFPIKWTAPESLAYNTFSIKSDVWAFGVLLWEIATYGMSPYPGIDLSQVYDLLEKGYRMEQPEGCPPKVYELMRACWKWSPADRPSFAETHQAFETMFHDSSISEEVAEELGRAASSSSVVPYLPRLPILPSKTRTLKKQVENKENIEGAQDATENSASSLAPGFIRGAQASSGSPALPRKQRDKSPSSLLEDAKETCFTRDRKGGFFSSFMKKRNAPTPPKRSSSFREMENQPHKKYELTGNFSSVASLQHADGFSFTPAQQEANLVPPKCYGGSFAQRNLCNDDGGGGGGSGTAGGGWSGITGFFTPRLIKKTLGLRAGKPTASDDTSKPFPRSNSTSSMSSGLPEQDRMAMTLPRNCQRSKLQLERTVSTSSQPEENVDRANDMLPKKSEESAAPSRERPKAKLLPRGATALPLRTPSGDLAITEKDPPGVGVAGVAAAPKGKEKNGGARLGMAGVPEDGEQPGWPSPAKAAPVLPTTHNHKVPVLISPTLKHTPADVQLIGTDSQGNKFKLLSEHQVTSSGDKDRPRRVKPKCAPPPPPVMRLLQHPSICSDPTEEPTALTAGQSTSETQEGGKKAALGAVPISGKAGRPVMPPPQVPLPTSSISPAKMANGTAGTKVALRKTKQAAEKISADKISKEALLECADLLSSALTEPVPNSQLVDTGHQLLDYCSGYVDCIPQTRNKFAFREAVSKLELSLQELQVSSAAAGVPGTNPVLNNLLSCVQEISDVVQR
# Procedure, shortened: as §1
# [3] = biological target: T3, kinases of the scanMAX Kinase assay panel (Homo sapiens, UniProt Q9H093); settings: kinase SNARK; 1 uM in DMSO
# T3 construct: purchased DiscoverX Co. (contract measurement) scanMAX Kinase assay panel
# T3 sequence (Q9H093 1-628): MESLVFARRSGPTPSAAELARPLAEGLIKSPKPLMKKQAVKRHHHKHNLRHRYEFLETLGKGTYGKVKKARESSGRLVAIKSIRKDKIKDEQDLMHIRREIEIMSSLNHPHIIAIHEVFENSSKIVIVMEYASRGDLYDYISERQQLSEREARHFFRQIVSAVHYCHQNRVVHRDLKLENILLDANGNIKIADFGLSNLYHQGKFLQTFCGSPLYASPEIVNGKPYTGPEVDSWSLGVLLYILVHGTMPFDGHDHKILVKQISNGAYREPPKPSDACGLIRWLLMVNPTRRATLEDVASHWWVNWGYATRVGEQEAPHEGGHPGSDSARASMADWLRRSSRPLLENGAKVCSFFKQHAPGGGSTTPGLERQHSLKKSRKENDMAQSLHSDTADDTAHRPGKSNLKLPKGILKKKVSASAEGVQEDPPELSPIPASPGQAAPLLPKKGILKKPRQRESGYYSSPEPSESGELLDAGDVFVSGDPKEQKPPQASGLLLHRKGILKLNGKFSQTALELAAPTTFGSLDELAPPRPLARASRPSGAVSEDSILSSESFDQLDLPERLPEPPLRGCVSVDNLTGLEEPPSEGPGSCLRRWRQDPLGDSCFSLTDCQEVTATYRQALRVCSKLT
# Procedure, shortened: as §1
# [4] = biological target: T4, kinases of the scanMAX Kinase assay panel (Homo sapiens, UniProt P45984); settings: JNK2; 1 uM
# T4 construct: purchased DiscoverX Co. (contract measurement) scanMAX Kinase assay panel
# T4 sequence (P45984 whole entry): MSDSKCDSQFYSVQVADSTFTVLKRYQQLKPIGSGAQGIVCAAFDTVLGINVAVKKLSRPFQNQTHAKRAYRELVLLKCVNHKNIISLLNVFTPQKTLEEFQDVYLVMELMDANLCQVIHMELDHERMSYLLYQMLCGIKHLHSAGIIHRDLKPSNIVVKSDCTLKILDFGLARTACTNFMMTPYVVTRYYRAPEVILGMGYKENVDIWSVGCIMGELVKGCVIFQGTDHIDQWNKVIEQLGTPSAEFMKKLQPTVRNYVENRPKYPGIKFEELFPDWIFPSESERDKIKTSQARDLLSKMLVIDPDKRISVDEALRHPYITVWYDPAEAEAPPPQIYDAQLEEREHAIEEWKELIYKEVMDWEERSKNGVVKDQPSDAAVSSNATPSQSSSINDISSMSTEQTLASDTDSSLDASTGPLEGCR
# Procedure, shortened: as §1
# [5] = biological target: T5, kinases of the scanMAX Kinase assay panel (Homo sapiens, UniProt Q13882); settings: BRK; 1 uM
# T5 construct: purchased DiscoverX Co. (contract measurement) scanMAX Kinase assay panel
# T5 sequence (Q13882 whole entry): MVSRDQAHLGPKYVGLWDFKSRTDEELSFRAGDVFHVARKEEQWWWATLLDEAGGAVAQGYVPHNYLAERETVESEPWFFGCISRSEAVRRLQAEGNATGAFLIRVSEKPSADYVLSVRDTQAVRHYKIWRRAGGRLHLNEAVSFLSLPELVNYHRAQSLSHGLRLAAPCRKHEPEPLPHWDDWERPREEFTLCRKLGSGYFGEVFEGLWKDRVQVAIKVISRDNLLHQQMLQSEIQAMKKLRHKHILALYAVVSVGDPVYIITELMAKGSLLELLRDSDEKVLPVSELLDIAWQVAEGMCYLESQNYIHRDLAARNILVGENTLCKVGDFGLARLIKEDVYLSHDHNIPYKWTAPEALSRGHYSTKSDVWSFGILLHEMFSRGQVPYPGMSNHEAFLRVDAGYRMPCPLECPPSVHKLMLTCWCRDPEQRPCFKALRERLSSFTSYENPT
# Procedure, shortened: as §1
# [6] = biological target: T6, kinases of the scanMAX Kinase assay panel (Homo sapiens, UniProt P48736); settings: PIK3CG; 1 uM
# T6 construct: purchased DiscoverX Co. (contract measurement) scanMAX Kinase assay panel
# Procedure, shortened: as §1
# [7] = biological target: T7, kinases of the scanMAX Kinase assay panel (Homo sapiens, UniProt O60285); settings: ARK5; 1 uM
# T7 construct: purchased DiscoverX Co. (contract measurement) scanMAX Kinase assay panel
# T7 sequence (O60285 1-661): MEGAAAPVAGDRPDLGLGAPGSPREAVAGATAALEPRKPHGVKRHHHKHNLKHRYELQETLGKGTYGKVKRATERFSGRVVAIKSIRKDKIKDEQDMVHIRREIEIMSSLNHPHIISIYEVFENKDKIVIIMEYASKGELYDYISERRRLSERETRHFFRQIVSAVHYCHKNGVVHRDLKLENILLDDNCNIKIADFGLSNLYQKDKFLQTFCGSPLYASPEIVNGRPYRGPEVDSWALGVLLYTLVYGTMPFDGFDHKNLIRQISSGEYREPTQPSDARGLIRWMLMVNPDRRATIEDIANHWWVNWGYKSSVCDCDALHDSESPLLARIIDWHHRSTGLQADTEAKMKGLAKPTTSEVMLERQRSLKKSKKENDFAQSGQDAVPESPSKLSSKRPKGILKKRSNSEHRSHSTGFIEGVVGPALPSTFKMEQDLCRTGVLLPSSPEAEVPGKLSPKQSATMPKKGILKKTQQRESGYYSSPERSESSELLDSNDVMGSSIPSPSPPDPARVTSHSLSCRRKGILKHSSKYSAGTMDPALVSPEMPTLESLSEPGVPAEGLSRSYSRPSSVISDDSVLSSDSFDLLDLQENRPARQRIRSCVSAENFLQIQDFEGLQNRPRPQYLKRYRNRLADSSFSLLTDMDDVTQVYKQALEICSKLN
# Procedure, shortened: as §1
# [8] = biological target: T8, kinases of the scanMAX Kinase assay panel (Homo sapiens, UniProt Q8NI60); settings: ADCK3; 1 uM
# T8 construct: purchased DiscoverX Co. (contract measurement) scanMAX Kinase assay panel
# T8 sequence (Q8NI60 163-647): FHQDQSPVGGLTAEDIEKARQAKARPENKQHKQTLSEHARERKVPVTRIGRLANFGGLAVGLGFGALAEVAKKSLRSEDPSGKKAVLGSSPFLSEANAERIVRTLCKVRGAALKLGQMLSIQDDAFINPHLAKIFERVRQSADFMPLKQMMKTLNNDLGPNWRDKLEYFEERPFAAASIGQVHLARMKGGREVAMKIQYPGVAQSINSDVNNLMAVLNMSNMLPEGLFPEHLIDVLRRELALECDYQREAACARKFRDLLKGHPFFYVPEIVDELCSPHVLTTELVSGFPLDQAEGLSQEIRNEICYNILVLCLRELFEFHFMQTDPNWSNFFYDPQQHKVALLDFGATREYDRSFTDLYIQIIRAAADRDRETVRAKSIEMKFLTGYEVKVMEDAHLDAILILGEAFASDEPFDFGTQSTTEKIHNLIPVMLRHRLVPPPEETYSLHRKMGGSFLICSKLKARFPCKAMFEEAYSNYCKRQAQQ
# Procedure, shortened: as §1
# [9] = biological target: T9, kinases of the scanMAX Kinase assay panel (Homo sapiens, UniProt Q96GD4); settings: AURKB; 1 uM
# T9 construct: purchased DiscoverX Co. (contract measurement) scanMAX Kinase assay panel
# T9 sequence (Q96GD4 whole entry): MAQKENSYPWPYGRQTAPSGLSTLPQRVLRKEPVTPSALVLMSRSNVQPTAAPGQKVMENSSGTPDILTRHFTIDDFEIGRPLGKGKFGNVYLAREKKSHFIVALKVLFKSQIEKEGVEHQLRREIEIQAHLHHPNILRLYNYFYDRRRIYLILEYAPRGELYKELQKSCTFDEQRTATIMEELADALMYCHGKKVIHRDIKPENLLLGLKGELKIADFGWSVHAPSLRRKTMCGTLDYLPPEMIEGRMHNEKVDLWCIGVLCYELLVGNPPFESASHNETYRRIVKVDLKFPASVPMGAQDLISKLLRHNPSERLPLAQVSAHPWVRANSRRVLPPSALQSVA
# Procedure, shortened: as §1
# [10] = biological target: T10, kinases of the scanMAX Kinase assay panel (Homo sapiens, UniProt P00519, Y253F); settings: ABL1(Y253F)-phosphorylated; 1 uM
# T10 construct: purchased DiscoverX Co. (contract measurement) scanMAX Kinase assay panel
# Procedure, shortened: as §1
# [11] = biological target: T11, kinases of the scanMAX Kinase assay panel (Homo sapiens, UniProt Q05655); settings: PRKCD; 1 uM
# T11 construct: purchased DiscoverX Co. (contract measurement) scanMAX Kinase assay panel
# Procedure, shortened: as §1
# [12] = biological target: T12, kinases of the scanMAX Kinase assay panel (Homo sapiens, UniProt P10721, D816H); settings: KIT(D816H); 1 uM
# T12 construct: purchased DiscoverX Co. (contract measurement) scanMAX Kinase assay panel
# Procedure, shortened: as §1
# [13] = biological target: T13, kinases of the scanMAX Kinase assay panel (Homo sapiens, UniProt P06239); settings: LCK; 1 uM
# T13 construct: purchased DiscoverX Co. (contract measurement) scanMAX Kinase assay panel
# T13 sequence (P06239 whole entry): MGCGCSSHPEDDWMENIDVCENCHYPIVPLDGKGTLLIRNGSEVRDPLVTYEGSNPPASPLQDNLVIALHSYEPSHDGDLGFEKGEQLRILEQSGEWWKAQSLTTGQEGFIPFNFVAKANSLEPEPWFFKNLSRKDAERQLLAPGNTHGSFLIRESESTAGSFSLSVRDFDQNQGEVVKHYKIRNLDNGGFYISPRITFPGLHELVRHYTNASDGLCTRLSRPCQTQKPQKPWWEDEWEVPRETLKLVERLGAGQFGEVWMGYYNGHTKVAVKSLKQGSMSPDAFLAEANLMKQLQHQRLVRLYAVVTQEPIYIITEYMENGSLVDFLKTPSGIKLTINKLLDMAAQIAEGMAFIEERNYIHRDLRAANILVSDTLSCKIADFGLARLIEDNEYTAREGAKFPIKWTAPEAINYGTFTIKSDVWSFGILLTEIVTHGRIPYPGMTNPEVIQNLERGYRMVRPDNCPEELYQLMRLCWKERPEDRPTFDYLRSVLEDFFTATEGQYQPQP
# Procedure, shortened: as §1
# [14] = biological target: T14, kinases of the scanMAX Kinase assay panel (Homo sapiens, UniProt Q00532); settings: CDKL1; 1 uM
# T14 construct: purchased DiscoverX Co. (contract measurement) scanMAX Kinase assay panel
# T14 sequence (Q00532 whole entry): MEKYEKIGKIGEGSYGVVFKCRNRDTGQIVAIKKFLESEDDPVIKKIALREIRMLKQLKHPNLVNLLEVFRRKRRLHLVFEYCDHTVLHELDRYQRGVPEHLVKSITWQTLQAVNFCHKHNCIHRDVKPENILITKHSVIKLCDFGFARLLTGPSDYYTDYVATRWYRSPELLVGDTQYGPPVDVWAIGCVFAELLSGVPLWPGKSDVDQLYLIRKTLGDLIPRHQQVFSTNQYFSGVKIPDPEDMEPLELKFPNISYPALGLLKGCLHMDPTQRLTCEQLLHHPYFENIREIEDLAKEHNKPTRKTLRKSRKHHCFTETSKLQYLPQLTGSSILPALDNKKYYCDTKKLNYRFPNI
# Procedure, shortened: as §1
# [15] = biological target: T15, kinases of the scanMAX Kinase assay panel (Homo sapiens, UniProt P00533, G719S); settings: EGFR(G719S); 1 uM
# T15 construct: purchased DiscoverX Co. (contract measurement) scanMAX Kinase assay panel
# T15 sequence (P00533 25-1210 G719S): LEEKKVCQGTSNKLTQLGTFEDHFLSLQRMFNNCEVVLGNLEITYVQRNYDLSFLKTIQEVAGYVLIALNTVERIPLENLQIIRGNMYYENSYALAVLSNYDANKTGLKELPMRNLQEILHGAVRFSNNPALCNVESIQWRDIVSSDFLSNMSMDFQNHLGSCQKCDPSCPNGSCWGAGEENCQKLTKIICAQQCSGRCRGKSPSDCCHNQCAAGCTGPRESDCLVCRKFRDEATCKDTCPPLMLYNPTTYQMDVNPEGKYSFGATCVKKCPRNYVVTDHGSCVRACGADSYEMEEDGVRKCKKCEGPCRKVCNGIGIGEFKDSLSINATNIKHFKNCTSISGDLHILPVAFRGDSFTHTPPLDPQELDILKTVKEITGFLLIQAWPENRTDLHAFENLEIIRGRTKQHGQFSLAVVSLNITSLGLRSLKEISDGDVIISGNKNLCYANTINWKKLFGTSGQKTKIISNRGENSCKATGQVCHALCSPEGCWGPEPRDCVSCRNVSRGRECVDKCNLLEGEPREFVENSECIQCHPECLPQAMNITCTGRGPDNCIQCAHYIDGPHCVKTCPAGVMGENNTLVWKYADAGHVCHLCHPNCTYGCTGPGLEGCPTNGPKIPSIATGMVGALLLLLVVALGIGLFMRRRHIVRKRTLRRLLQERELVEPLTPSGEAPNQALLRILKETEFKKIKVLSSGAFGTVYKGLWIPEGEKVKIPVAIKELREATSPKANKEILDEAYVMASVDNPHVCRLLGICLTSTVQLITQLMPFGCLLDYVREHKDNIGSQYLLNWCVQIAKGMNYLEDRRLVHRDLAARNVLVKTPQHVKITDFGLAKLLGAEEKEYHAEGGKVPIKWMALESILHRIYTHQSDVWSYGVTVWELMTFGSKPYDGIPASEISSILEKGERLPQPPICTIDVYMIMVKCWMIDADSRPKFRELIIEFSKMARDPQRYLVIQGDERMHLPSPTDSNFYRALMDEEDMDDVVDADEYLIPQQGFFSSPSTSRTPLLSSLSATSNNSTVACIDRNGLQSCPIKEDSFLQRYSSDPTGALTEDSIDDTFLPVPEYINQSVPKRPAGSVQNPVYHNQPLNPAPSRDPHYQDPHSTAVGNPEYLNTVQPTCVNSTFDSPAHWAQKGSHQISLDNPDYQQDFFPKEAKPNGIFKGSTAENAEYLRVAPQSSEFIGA
# Procedure, shortened: as §1
SMILES,remaining binding at 1 µM [1],remaining binding at 1 µM [2],remaining binding at 1 µM [3],remaining binding at 1 µM [4],remaining binding at 1 µM [5],remaining binding at 1 µM [6],remaining binding at 1 µM [7],remaining binding at 1 µM [8],remaining binding at 1 µM [9],remaining binding at 1 µM [10],remaining binding at 1 µM [11],remaining binding at 1 µM [12],remaining binding at 1 µM [13],remaining binding at 1 µM [14],remaining binding at 1 µM [15]
"CNc1nc(Nc2ccc(C(=O)N3CCOCC3)cc2OC)nc2[nH]cc(C#N)c12 [Example 1, 2-((2-methoxy-4-(morpholine-4-carbonyl)phenyl)amino)-4-(methylamino)-7H-pyrrolo[2,3-d]pyrimidine-5-carbonitrile]",54%,99%,77%,0.1%,93%,76%,88%,94%,73%,97%,100%,77%,100%,89%,82%
"CC1(Nc2nc(Nc3cnn([C@H]4CCN(C5COC5)C[C@@H]4F)c3Cl)nc3[nH]cc(C#N)c23)CC1 [Example 52, 2-((5-chloro-1-((3S,4S)-3-fluoro-1-(oxetane-3-yl)piperidine-4-yl)-1H-pyrazole-4-yl)amino)((1-methylcyclopropyl)amino)-7H-pyrrolo[2,3-d]pyrimidine-5-carbonitrile]",2.3%,34%,0.95%,0%,24%,8.5%,2.5%,98%,14%,1%,81%,8.1%,19%,46%,57%
"CCNc1nc(Nc2ccc(C(=O)N3CCC(N4CCOCC4)CC3)cc2OC)nc2[nH]cc(C(F)(F)F)c12 [Example 104, (4-((4-(ethylamino)-5-(trifluoromethyl)-7H-pyrrolo[2,3-d]pyrimidine-2-yl)amino)-3-methoxyphenyl)(4-morpholinopiperidine-1-yl)methanone]",55%,100%,91%,23%,64%,87%,99%,100%,90%,86%,100%,100%,100%,88%,100%
